Data as given in PubChem BioAssay AID434940 (The Scripps Research Institute Molecular Screening Center, 2010).
Active and inactive are the calls of the source.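 The calls were made as follows: active = STAT3 activation with EC50 of 10 µM or lower; inactive = EC50 above 10 µM or none.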

test system: U3A STAT3-luciferase reporter, IL-6 stimulated, luminescence; assay: enhancement of STAT3 luciferase transcription – U3A cells, luminescence, dose response, powder samples, counter-screen for STAT1 activator project, late-stage follow-up (AID 434940)

Structure (SMILES) | EC50
COc1ccc(-c2csc(N3C(=O)CNC3=S)n2)cc1 | > 55.7 µM (inactive)
COc1ccc2[nH]c3c(c2c1)CCn1c-3nc2ccccc2c1=O | > 18.6 µM (inactive)
O=C(/C=C/Nc1ccccc1F)c1ccc(Br)cc1 | > 55.7 µM (inactive)
Cc1cc(-c2ccncc2)n2ncc(-c3ccccc3)c2n1 | > 55.7 µM (inactive)
CC(=O)NC(=S)Nc1sc2c(c1C#N)CCCCC2 | > 55.7 µM (inactive)
CCN(CC)c1ccc2cc(C(=O)Nc3ccccn3)c(=O)oc2c1 | 0.804 µM
Cc1ccc(C(=O)Nc2nc3ccccc3s2)s1 | > 55.7 µM (inactive)
COc1ccc(-c2cc(C)nc3c(-c4ccccc4)cnn23)cc1 | > 55.7 µM (inactive)
Cc1nnc(SCC(=O)Nc2ccc(-c3nc4ccccc4s3)cc2)s1 | > 55.7 µM (inactive)
O=C(Nc1nc2ccccc2s1)c1cc2ccccc2s1 | > 55.7 µM (inactive)
